Entries after “also recorded” stand apart in the source; their conditions may differ.
Columns and labels:
Assay type in all cases: in vivo, mouse
[1] = system: C57BL/6 mice with TIC model; experiment: von Frey mechanical threshold, TIC trigeminal nerve injury model
Excerpt: Mice underwent the TIC nerve injury surgery, a simplified non-ligation variant of the trigeminal CCI-ION model previously described (Lyons et al., Neuroscience 2015 Jun. 4; 295:126-138; Ma et al., MolBrain 2012 Dec. 28; 5:44). Briefly, mice were anesthetized with isoflurane (3-4%) and a piece of chromic gut suture (2 mm length, 6-0) was placed parallel to the infraorbital nerve (ION) adjacent to the maxillary bone infraorbital fissure at a site just under the lower eyelid. Naïve controls underwent anesthesia only. The chronic trigeminal inflammatory compression (TIC) nerve injury model induces measurable changes in evoked reflexive or higher order pain-like and anxiety-like behaviors but are not otherwise detectable.
The HDAC4/5 inhibitor LMK235 (s.c., 5 mg/kg)(N-[[6-(Hydroxyamino)-6-oxohexyl]oxy]-3,5-dimethyl-benzamide) (Cayman Chemical Co., Ann Arbor, MI) was used at previously published dilutions (Bennett G J, Xie Y K. Pain 1988 April; 33:87-107). […] All treatments with the HDACi (5 mg/kg) or vehicle were given daily for seven consecutive days in the neck scruff (s.c.) for comparisons to naïve control mice.
In the first post-treatment study, male C57B1/6 mice were subcutaneously (s.c.) injected daily for seven days beginning in week 3 following the trigeminal nerve insult induced surgically. Withdrawal thresholds were tested weekly with von Frey fiber stimulation on the snout. One TIC mouse behaving erratically on day 1-7 was eliminated from the study.
In the second post-treatment study, C57B1/6 mice were treated daily for 14 days in week 8 and week 9 after the nerve insult. Withdrawal thresholds were determined weekly with von Frey fiber stimulation on the snout until experiment end.
Testing was done by an observer blinded to study group. Von Frey assessment of snout withdrawal threshold was conducted prior to and at least once a week after nerve injury to confirm development of craniofacial neuropathic pain. […]
(§1) Mechanical and cold sensitivity was modified for face as previously described (Montera M A, Westlund K N, Bio-protocol2020 April 20; 10(8):e3591-e3591; Lyons et al., Neuroscience 2015 Jun. 4; 295:126-138; Ma et al., Mol Brain 2012 Dec. 28; 5:44; Montera et al., Channels (Austin). 2021 December; 15(1):31-37). Briefly, animals were gently restrained and the mechanical threshold for nocifensive head withdrawal was determined using calibrated von Frey filaments (0.008 g-6.0 g) using the Up-Down method (Chaplan et al., J Neurosci Methods 1994 July; 53(1):55-63; FIG. 2). Cold sensitivity was determined by applying a 10° C. cold coil to the ION's receptive field and measuring the time until an animal withdrew its head (Montera et al., Channels (Austin). 2021 December; 15(1):31-37).

[2] = system: BALBc mice with FRICT-ION nerve injury; experiment: von Frey mechanical threshold, FRICT-ION trigeminal nerve injury model; settings: male and female BALBc FRICT-ION mice, 5 mg/kg s.c. daily in week 3, vs vehicle
Excerpt: The FRICT-ION chronic neuropathic pain model combines the chemical irritation of chromic gut suture with some physical compression of the maxillary branch (V2) of the trigeminal nerve. FRICT-ION model was induced in 9-week-old mice anesthetized briefly with isoflurane (2-3%). Intraoral surgical incision was made with a small scalpel puncture at the buccal cheek crease. A piece of chromic gut suture (3 mm length, 4-0) was placed parallel to the infraorbital nerve (ION) and pushed into the tight space to follow the trigeminal nerve as it passes into the foramen rotundum of the skull. The model simulates blunt force traumatic injury to the nerve, residual wound debris, or other irritation. […]
[…] Withdrawal thresholds were determined weekly with von Frey fiber stimulation on the snout. […]
as §1, with “Cold sensitivity was determined by applying a 10° C. cold coil to the ION's receptive field and measuring the time until an animal withdrew its head (Montera et al., Channels (Austin). 2021 December; 15(1):31-37).” left out

FRICT-ION mice = experiment: Cold probe (10° C.) sensitivity test, FRICT-ION model; settings: 5 mg/kg, vs FRICT-ION+vehicle
Excerpt: The FRICT-ION chronic neuropathic pain model combines the chemical irritation of chromic gut suture with some physical compression of the maxillary branch (V2) of the trigeminal nerve. FRICT-ION model was induced in 9-week-old mice anesthetized briefly with isoflurane (2-3%). Intraoral surgical incision was made with a small scalpel puncture at the buccal cheek crease. A piece of chromic gut suture (3 mm length, 4-0) was placed parallel to the infraorbital nerve (ION) and pushed into the tight space to follow the trigeminal nerve as it passes into the foramen rotundum of the skull. The model simulates blunt force traumatic injury to the nerve, residual wound debris, or other irritation.
On the day of FRICT-ION model induction in BALBc mice, LMK235 was administered and treatment was continued for seven days. Withdrawal thresholds were determined weekly with von Frey fiber stimulation on the snout. Cold sensitivity on the snout and anxiety were tested once prior to experiment end in week 8-9.
Mechanical and cold sensitivity was modified for face as previously described (Montera M A, Westlund K N, Bio-protocol2020 April 20; 10(8):e3591-e3591; Lyons et al., Neuroscience 2015 Jun. 4; 295:126-138; Ma et al., Mol Brain 2012 Dec. 28; 5:44; Montera et al., Channels (Austin). 2021 December; 15(1):31-37). […]

Compound: Cc1cc(C)cc(C(=O)NOCCCCCC(=O)NO)c1 [LMK235, N-[[6-(Hydroxyamino)-6-oxohexyl]oxy]-3,5-dimethyl-benzamide]
- mechanical threshold (von Frey), ipsilateral ([1]; C57BL/6 TIC mice, 5 mg/kg s.c., post-treatment 8 weeks after nerve injury, vs vehicle, 5 mg/kg): significantly reversed; also recorded: significantly increased the mechanical threshold
- mechanical threshold (von Frey), contralateral side ([1]; TIC mice treated in week 8): complete return to naïve baseline
- whisker pad mechanical threshold (von Frey) ([1]; male C57BL/6 TIC mice, 5 mg/kg s.c. daily for seven days in week 3, vs vehicle, 5 mg/kg): reversed to naïve baseline; also recorded: returned whisker pad mechanical threshold to naïve baseline
- time mechanical threshold remained at naïve baseline ([1]; male C57BL/6 TIC mice, 5 mg/kg s.c. daily in week 3): 4-6 weeks
- mechanical threshold / von Frey hypersensitivity [2]: reverses von Frey hypersensitivity; also recorded: restored mechanical threshold to baseline
- cold hypersensitivity (10° C. cold probe on snout) (FRICT-ION mice): significantly improved; also recorded: reduced
